Assay results: patent US20130109017A1, “MULTIPLE MYELOMA PROGNOSIS AND TREATMENT” (University of Utah Research Foundation, priority 2010, published 2013)

Legend:
[1] = tested on: 5TGM1/C57BL/KaLwRij mouse myeloma model; assay: Serum IgG2b level in 5TGM1/C57BL/KaLwRij myeloma mice; settings: bortezomib 1 mg/kg, PTH 80 μg/kg; p=0.017, p=0.029, p=0.017 respectively; FIG. 7
Experimental: A preclinical myeloma model was employed to examine the effects of PTH and bortezomib (velcade) on proteasome activity with respect to bone remodeling and MM pathogenesis. As such, myelomatous C57BL/KaLwRij mice were injected with 5TGM1 multiple myeloma cells as described. […] Briefly, 5TGM1 inoculation cultures were harvested, centrifuged, washed twice in 50 mL phosphate-buffered saline (PBS), and resuspended at 5×10^6 cells per mL of PBS. Experimental mice were injected with 100 μl of inoculation culture via tail vein injection using a 27-gauge needle. Control animals received injections of PBS.
Each experimental group included 5 mice, and one week after 5TGM1 cell injection, bortezomib, PTH, and/or {[TYR^34]bPTH-(7-34)} were administered in various combinations. The following groups, each containing five mice, were analyzed: untreated controls; bortezomib-treated mice; PTH treated mice; PTH and bortezomib treated mice; and 5{[TYR^34]bPTH-(7-34)} and bortezomib treated mice.
In accord with the experimental procedure outline above, bortezomib (velcade), at a concentration of 1 mg/kg, was administered to the mice via intraperitoneal injection alone, or in combination with PTH or the anti-PTH compound, twice a week (FIG. 6). PTH was added in a similar fashion, once-daily, alone, or in combination with bortezomib, at a concentration of 80 μg/kg. […]

[2] = tested on: bortezomib-resistant RPMI 8226 MM cell line; assay: IC50 of bortezomib in bortezomib-resistant RPMI 8226 cells; format: cell-based; settings: RPMI8226 bortezomib-resistant cells
Experimental: 5TGM1 myeloma cells (Noboru et al., A multiresponse parathyroid hormone assay: an inhibitor has agonist properties in vivo. American Physiological Society. E589-95 (1983)) were initially derived from the myeloma cell line 5T33, which were obtained from C57BL/KaLwRij mice. See Dallas et al., Ibandronate Reduces Osteolytic Lesions but not Tumor Burden in a Murine Model of Myeloma Bone Disease. Blood. 93: 1697-1706 (1999). 5TGM1 cells were grown in Hyclone classical liquid media RPMI 1640 (Thermo Scientific Hyclone, Logan, Utah) supplemented with heat-inactivated fetal bovine serum (Thermo Scientific Hyclone, Logan, Utah) and 1% penicillin-streptomycin solution (GIBCO, Grand Island, N.Y.) at 37° C. in 5% CO2. Additionally, two bortezomib-resistant MM cell lines, RPMI 8226 and ARP1, were generated via a stepwise increase in bortezomib (velcade) concentration.

5TGM1 myeloma cells = assay: 5TGM1 myeloma cell proliferation; format: cell-based, mouse; settings: for 5TGM1 cell growth compared to controls: once a day, FIG. 2
Experimental: Blood. 93: 1697-1706 (1999). 5TGM1 cells were grown in Hyclone classical liquid media RPMI 1640 (Thermo Scientific Hyclone, Logan, Utah) supplemented with heat-inactivated fetal bovine serum (Thermo Scientific Hyclone, Logan, Utah) and 1% penicillin-streptomycin solution (GIBCO, Grand Island, N.Y.) at 37° C. in 5% CO2. Additionally, two bortezomib-resistant MM cell lines, RPMI 8226 and ARP1, were generated via a stepwise increase in bortezomib (velcade) concentration.
Initially, 5TGM1 myeloma cells were seeded in 24-well plates (10^5 cells/mL) using RPMI-1640, supplemented with 2% FBS, in the presence or absence of bortezomib (velcade), PTH, and/or {[TYR^34]bPTH-(7-34)}.

[3] = tested on: 5TGM1/C57BL/KaLwRij mouse myeloma model; assay: Overall survival of 5TGM1/C57BL/KaLwRij myeloma mice; format: in vivo
Experimental: Blood. 114 Abstract 2865 (2009). […] Control animals received injections of PBS.
In this regard, the anti-PTH compound, {[TYR^34]bPTH-(7-34)}, was also tested in the presence or absence of bortezomib and PTH to determine whether myeloma growth and/or bone formation were affected. Similar experiments were performed using carfilzomib as shown below.
C57BL/KaLwRij mice (n=5) were subcutaneously injected carfilzomib (1.5 mg/kg) twice a week. The anti-PTH compound (500 μg/kg) was also administered to the mice 3 days prior and 1 day prior to carfilzomib treatment, where noted. Tumor burden was monitored by measuring IgG2b serum concentration twice a week.

Molecule: CC(C)C[C@H](NC(=O)[C@H](Cc1ccccc1)NC(=O)c1cnccn1)B(O)O [bortezomib]
- serum IgG level compared to controls [1]: significant inhibition
- IC50 [2]: 250 nM
- 5TGM1 cell proliferation compared to controls (5TGM1 myeloma cells; bortezomib alone at 5 nM or 10 nM, every other day, p=0.01 at 5 nM, p=0.001 at 10 nM, FIG. 1): concentration dependent reduction in 5TGM1 cell proliferation
- increased survival versus control mice ([3]; bortezomib 1 mg/kg intraperitoneal twice a week): 40%
- maximum survival ([3]; bortezomib 1 mg/kg intraperitoneal twice a week, control mice maximum five weeks): up to seven
- survival compared to controls ([3]; bortezomib 1 mg/kg intraperitoneal twice a week, p=0.044, FIG. 6): prolonged survival
- survival compared to mice treated with bortezomib and the anti-PTH compound ([3]; bortezomib 1 mg/kg, PTH 80 μg/kg, p=0.044 (bortezomib), p=0.047 (bortezomib and PTH)): significantly longer period of time

Molecule: CC(C)C[C@H](NC(=O)[C@H](CCc1ccccc1)NC(=O)CN1CCOCC1)C(=O)N[C@@H](Cc1ccccc1)C(=O)N[C@@H](CC(C)C)C(=O)[C@@]1(C)CO1 [carfilzomib]
- survival compared to controls ([3]; carfilzomib 1.5 mg/kg subcutaneous twice a week, p=0.012, FIG. 8): increased survival

Molecule: {[TYR^34]bPTH-(7-34)} (FMHNLGKHLSSMERVEWLRKKLQDVHNY; Parathyroid hormone; UniProt P01268 38-65, looked up, variant F34Y) [anti-PTH, analog of PTH, antagonist of PTH]
- effect on 5TGM1 cell survival (5TGM1 myeloma cells; anti-PTH alone at 100 nM, 500 nM and 1 μM, p=0.1, FIG. 3): did not have an effect

B1: parathyroid hormone (peptide, UniProt P01270 32-115, looked up)
Parathyroid hormone: SVSEIQLMHNLGKHLNSMERVEWLRKKLQDVHNFVALGAPLAPRDAGSQRPRKKEDNVLVESHEKSLGEADKADVNVLTKAKSQ
modifications: Parathyroid hormone
notes: 84 amino acid polypeptide secreted by the parathyroid glands
- serum IgG level compared to controls [1]: significant inhibition
- 5TGM1 cell growth compared to controls (5TGM1 myeloma cells; PTH alone 10 nM, p=0.1): not a significant difference
- 5TGM1 cell growth compared to controls (5TGM1 myeloma cells; PTH alone 50 nM, p=0.001): statistically significant decrease in cell growth
- 5TGM1 cell growth compared to controls (5TGM1 myeloma cells; PTH alone 100 nM, p=0.001): statistically significant decrease in cell growth
